Assay results published in patent US8741905B2, “Compounds and methods for treating autoimmune diseases” (The Broad Institute, Inc., priority 2010, dated 2014).

How the values were obtained:
[1] = tested on: INS-1E cells; experiment: Cellular ATP levels (CellTiter-Glo) in cytokine-treated INS-1E cells; suppression of cytokine-induced beta-cell apoptosis; type: cell-based, rat; settings: INS-1E cells, cytokines IL-1β, IFN-γ, TNF-α, 48 h, CellTiter-Glo; read-out: CTG EC50 in HTS
Experimental: The compounds were analyzed for activity utilizing methods described in Chou et al. (ACS Chem. Biol. 2010 Aug. 20; 5(8):729-34).
INS-1E cells were seeded at 10,000 cells per well using a Multidrop Combi (Thermo Labsystems) in white optical 384-well plates (Corning Life Sciences). After overnight incubation, medium was removed and 50 μL of RPMI containing 1% FBS and a combination of cytokines (10 ng mL-^1 IL-1β, 50 ng mL^−1 IFN-γ, 25 ngmL^−1 TNF-α) was added to every well. Using libraries of compounds dissolved in DMSO and a CyBi-Well pin-transfer robot (CyBio Corp.), 0.1 μL of each compound was added. After 48 h, medium was removed and 20 μL of CellTiter-Glo reagent was added. Luminescence was measured after 10 min of incubation using an EnVision plate reader (PerkinElmer).
Instrument output files were processed using Pipeline Pilot (Accelrys) and input to MATLAB (The MathWorks) for data normalization. Compound performance scores relative to a distribution of mock-treated (DMSO) wells were calculated using a revised version of the scoring system underlying ChemBank. (Seiler et al., Nucleic Acids Res. 36, D351-359, 2008). The role of replicate treatments was further developed as follows: first, mock-treatment distributions were modeled using all mock-treated wells measured on a single day, regardless of their nominal replicate; second, per-compound scores weighted each in-plate background-subtracted measurement by the uncertainty in that measurement, using the method of maximum likelihood. The uncertainty in a single background-subtracted measurement was estimated using the number of mock-treated wells on the plate and, as a measure of the assay noise, the standard deviation of the per-day mock-treatment distribution. The signal, a weighted average of differences, was scaled by the noise, the standard deviation of the mock treatment distribution.
INS-1E cells were seeded at 10,000 cells/well using a Multidrop Combi (Thermo Labsystems) in white optical 384-well plates (Corning Life Sciences). After overnight incubation, medium was removed and 50 μL RPMI containing the treated compound, 1% FBS and a combination of cytokines (10 ng/mL IL-1β, 50 ng/mL IFN-γ, 25 ng/mL TNF-α) was added to every well. After incubation for 48 hr, medium was removed and 20 μL CellTiter-Glo reagent was added. Luminescence was measured after 10-min incubation using an EnVision plate reader (PerkinElmer).

[2] = tested on: INS-1E cells; experiment: Caspase-3 activity assay (Caspase-Glo 3/7) in cytokine-treated INS-1E cells; type: cell-based, rat; settings: cytokines, 48 h, Caspase-Glo 3/7
Experimental: INS-1E cells were seeded at 5,000 cells per well in white optical 384-well plates and treated as described for highthroughput screening. After treatment with cytokines and compounds for 48 h, medium was removed and 20 μL Caspase-Glo 3/7 reagent was added. Luminescence was measured after 2 h of incubation using an EnVision plate reader.

[3] = tested on: beta cells; settings: HDAC inhibition, presumably by decreasing NF-κB transactivation; cited from earlier work

SMILES | EC50 [1] [µM] | EC50 [2] [µM] | cytokine-induced beta-cell death [3]
COc1ccc(S(=O)(=O)N(C)C[C@@H]2Oc3c(NC(=O)c4cccc5ccccc45)cccc3C(=O)N([C@@H](C)CO)C[C@H]2C)cc1 [Compound 35A] | > 25 | > 25 | –
C[C@@H]1CN([C@@H](C)CO)C(=O)c2cccc(NC(=O)Nc3cccc4ccccc34)c2O[C@H]1CN(C)S(=O)(=O)c1cn(C)cn1 [Compound 36A] | > 25 | > 25 | –
Cc1ccc(S(=O)(=O)N(C)C[C@@H]2Oc3c(NC(=O)Nc4ccc(F)cc4)cccc3C(=O)N([C@@H](C)CO)C[C@H]2C)cc1 [Compound 37A] | > 25 | > 25 | –
C[C@@H]1CN([C@@H](C)CO)C(=O)c2cccc(NC(=O)Nc3ccc(F)cc3)c2O[C@H]1CN(C)S(=O)(=O)c1ccc(F)cc1 [Compound 38A] | > 25 | > 25 | –
COc1ccc(S(=O)(=O)N(C)C[C@@H]2Oc3c(NC(=O)Nc4cccc(-c5ncccn5)c4)cccc3C(=O)N([C@@H](C)CO)C[C@H]2C)cc1 [Compound 39A] | > 25 | > 25 | –
COc1ccc(S(=O)(=O)N(C)C[C@@H]2Oc3c(NC(=O)Nc4cccc(-c5ccccc5)c4)cccc3C(=O)N([C@@H](C)CO)C[C@H]2C)cc1 [Compound 40A] | > 25 | > 25 | –
COc1ccc(S(=O)(=O)N(C)C[C@@H]2Oc3c(NC(=O)Nc4cc(F)ccc4F)cccc3C(=O)N([C@@H](C)CO)C[C@H]2C)cc1 [Compound 41A] | > 25 | > 25 | –
COc1ccc(S(=O)(=O)N(C)C[C@@H]2Oc3c(NC(=O)Nc4cccc(C(F)(F)F)c4)cccc3C(=O)N([C@@H](C)CO)C[C@H]2C)cc1 [Compound 42A] | > 25 | > 25 | –
COc1ccc(S(=O)(=O)N(C)C[C@@H]2Oc3c(NC(=O)Nc4cccc5c4CCCC5)cccc3C(=O)N([C@@H](C)CO)C[C@H]2C)cc1 [Compound 43A] | > 25 | > 25 | –
COc1ccc(S(=O)(=O)N(C)C[C@@H]2Oc3c(NC(=O)Nc4ccc5occc5c4)cccc3C(=O)N([C@@H](C)CO)C[C@H]2C)cc1 [Compound 44A] | > 25 | > 25 | –
COc1ccc(S(=O)(=O)N(C)C[C@@H]2Oc3c(NC(=O)Nc4cccc5c4CC(C)(C)O5)cccc3C(=O)N([C@@H](C)CO)C[C@H]2C)cc1 [Compound 46A] | > 25 | > 25 | –
COc1ccc(S(=O)(=O)N(C)C[C@@H]2Oc3c(NC(=O)Nc4ccc5c(c4)OCCO5)cccc3C(=O)N([C@@H](C)CO)C[C@H]2C)cc1 [Compound 47A] | > 25 | > 25 | –
COc1ccc(S(=O)(=O)N(C)C[C@@H]2Oc3c(NC(=O)Nc4cc(F)cc5c4OCOC5)cccc3C(=O)N([C@@H](C)CO)C[C@H]2C)cc1 [Compound 48A] | > 25 | > 25 | –
O=C(CCCCCCC(=O)Nc1ccccc1)NO [SAHA, suberoylanilide hydroxamic acid] | – | – | can prevent cytokine-induced beta-cell death
CC(/C=C/C(=O)NO)=C\[C@@H](C)C(=O)c1ccc(N(C)C)cc1 [TSA, trichostatin A] | – | – | can prevent cytokine-induced beta-cell death
